Here are results for four compounds from PMC10100771, “A Novel CMY Variant Confers Transferable High-Level Resistance to Ceftazidime-Avibactam in Multidrug-Resistant Escherichia coli” (Microbiology Spectrum, 2023).

Converted amounts (≈) assume the structure as drawn. Like-named read-outs stand apart in the source and are kept apart here.

Data set [1] concerns the target T1, CMY-178 (Klebsiella pneumoniae, UniProt Q48434, DEL310-312/N366I/N90T).
T1 construct: were amplified without a signal peptide and cloned into the pET28a; His8 (N); made in house; host or cells: E. coli BL21(DE3)
The experiment in a line: Enzyme kinetics (substrate hydrolysis) of purified CMY-178. The data set is classed as biochemical, Escherichia coli. The procedure:
(§1) blaCMYs (including blaCMY-2, blaCMY-172, and blaCMY-178) were amplified without a signal peptide and cloned into the pET28a, which led to the introduction of an N-terminal His8-Tag.The recombinant plasmids were transformed into E. coli BL21(DE3) and selected using Sanger sequencing. Lysogenic broth containing 50 μg/mL kanamycin was inoculated with transformants and grown to reach an OD600 of 0.6. A final concentration of 1 mM isopropyl-β-D-thiogalactopyranoside (IPTG) was added into the resulting culture, which was shaken at 18°C overnight. The culture broth was centrifuged to harvest bacteria. The pellet was resuspended in lysis buffer (50 mM Tris-HCl and 300 mM NaCl (pH 7.5)) and disrupted using a JN-02C French press (JNBIO, Guangzhou, China) at 1,100 bar. Then, the cell debris was removed by centrifugation at 11,000 rpm for 40 min at 4°C. The supernatant was added to an Ni column, and the absorbed protein was eluted by the eluent buffer (lysis buffer with 300 mM imidazole). SDS-PAGE confirmed the protein purity of the eluent (>95%), and the sample was loaded onto a pre-equilibrated Superdex 200 column to eliminate imidazole.
(§2) Enzymatic activities were measured using a D8 UV-visible spectrophotometer (Rumqee, Shanghai, China) in phosphate-buffered saline (PBS; pH 7.2) at room temperature. Substrates tested included nitrocefin, ceftazidime, and avibactam. The extinction coefficient and wavelength of nitrocefin are 17,400 M^−1 · cm^−1 and 482 nm, respectively. […] The initial reaction velocities (v) were measured and Ki values were calculated by fitting data into equation 1 with GraphPad Prism v9.0.0 ([37]). (1) v=Vmax[S]/[S]+Km NCF (1+[I]/Ki)

The target in data set [2] is T2, CMY-172 (Klebsiella pneumoniae, UniProt Q48434, DEL310-312/N366I).
T2 construct: were amplified without a signal peptide and cloned into the pET28a; His8 (N); made in house; host or cells: E. coli BL21(DE3)
In words: Enzyme kinetics (substrate hydrolysis) of purified CMY-172. The data set is classed as biochemical. How it is done: as §1, §2

In data set [3] the test system is O=C(Cc1cccs1)N[C@@H]1C(=O)N2C(C(=O)O)=C(/C=C/c3ccc([N+](=O)[O-])cc3[N+](=O)[O-])CS[C@H]12. The experiment in a line: Enzyme kinetics (substrate hydrolysis) of purified CMY-2. The following applies: other: CMY-2, PBS pH 7.2, room temperature, mean ± SD, three experiments. In kind it is biochemical. The procedure: as §1, §2
The subject of the next data set is E. coli J53. In words: MIC by agar dilution, recipient E. coli J53. The following applies: Escherichia coli. The data set is classed as cell-based. How it is done: (§3) Antimicrobial susceptibility testing was performed and interpreted according to the Clinical and Laboratory Standards Institute (CLSI) guidelines and breakpoints (M100, 31st edition) by the agar dilution method. E. coli ATCC 25922 and K. pneumoniae ATCC 700603 served as control strains.
(§4) The antibiotics we used included meropenem (Hanhui Pharmaceutical Co., Ltd., China), imipenem (Merck Sharp & Dohme Corp., USA), cefepime (Jiangsu Hengrui Pharmaceutical Co., Ltd., China), piperacillin (Suzhou Erye Pharmaceutical Co., Ltd., China), ceftazidime (Guangdong Jincheng Jinsu Pharmaceutical Co., Ltd., China), tazobactam (Meilunbio, China), avibactam (MedChemExpress, USA), aztreonam (Sigma-Aldrich, USA), amikacin (Meilunbio), cefuroxime (Esseti Farmaceutici S.r.l., Italy), fosfomycin (Harbin Pharmaceutical Group Co., Ltd. China), levofloxacin (Daiichi Sankyo Company Limited, Beijing, China), and cefotaxime (North China Pharmaceutical Hebei Huamin Pharmaceutical Co., Ltd., China).
(§5) Conjugation experiments were performed by filter mating using sodium-azide-resistant E. coli J53 as the recipient, as described previously. Transconjugants were selected with MH agar containing 100 μg/mL sodium azide and 4 μg/mL ceftazidime-avibactam; furthermore, transconjugants were named J53-AR13438 and J53-KPCZA02, respectively. We compared genomes of AR13438 and J53 to select a unique gene (gtrA) to J53. The blaCMY-178-postive transconjugants were confirmed by PCR and MALDI-TOF MS (see Fig. S9 in the supplemental material). The primers used for PCR were gtrA-F, gtrA-R, CMY-F, and CMY-R (Table S1). The transfer frequencies were calculated as the number of transconjugants (CFU/mL) divided by the number of recipients (CFU/mL). Donors and recipients were mixed at 1:1 for the transfer frequency experiment. S1-PFGE and Southern blotting were performed to define the location of blaCMY-178 and confirm the transmission of the plasmid as described previously ([35]). The MIC profiles of transconjugants were also determined by the agar dilution method.

Data set [4] concerns E. coli DH5α-pCR2.1-CMY-2. In words: MIC by agar dilution, transformant containing blaCMY-2. The data set is classed as cell-based. The following applies: Escherichia coli. On the technique in general: In agar dilution the substance is mixed into plates at graded concentrations.
In data set [5] the test system is E. coli DH5α-pCR2.1-CMY-178. The experiment in a line: MIC by agar dilution, transformant containing blaCMY-178. The data set is classed as cell-based, Escherichia coli. How it is done:
as §3, §4
(§6) The blaCMY cloning was performed using a TA cloning kit (Invitrogen, Shanghai, China). The blaCMY-178 gene combined with its predicted promoter was amplified from isolate AR13438. Then, the blaCMY-178 gene was cloned into the linearized vector pCR2.1 using T4 DNA ligase (Invitrogen). The blaCMY-172 gene was cloned from KPCZA02 with the same method. The resulting plasmids were chemically transformed into E. coli DH5α. The positive transformants were identified by blue-white screening in MH agar containing 50 μg/mL kanamycin and were further confirmed by Sanger sequencing. The pCR2.1 blank vector was also transformed into E. coli DH5α as a control. The primers used for cloning were CMY-F and CMY-R (see Table S2 in the supplemental material). Relative CMY expression was measured by reverse transcription-quantitative PCR as described previously ([34]). Specific quantitative PCR (qPCR) primers (q-recA-F/R and q-CMY-F/R) were designed (Table S2).

In a further data set the test system is E. coli J53-AR13438. The experiment in a line: MIC by agar dilution, conjugant containing pAR13438_2. The data set is classed as cell-based. The following applies: Escherichia coli, J53AR13438, E. coli J53-AR13438 (blaCMY-178). How it is done: as §3
as §5, with “The blaCMY-178-postive transconjugants were confirmed by PCR and MALDI-TOF MS (see Fig. S9 in the supplemental material).” left out

The subject of a further data set is E. coli J53-KPCZA02. The experiment in a line: MIC by agar dilution, conjugant containing pKPCZA02_4. The data set is classed as cell-based. The following applies: Escherichia coli, J53KPCZA02, E. coli J53-KPCZA02 (blaCMY-172). How it is done:
as §3
as §5, with “The blaCMY-178-postive transconjugants were confirmed by PCR and MALDI-TOF MS (see Fig. S9 in the supplemental material).” left out

For another data set, the system named is E. coli DH5α. In words: MIC by agar dilution, E. coli DH5α. The data set is classed as cell-based. The following applies: Escherichia coli. How it is done: as §3, §4
Another data set has as its target T3, CMY-2 (Klebsiella pneumoniae, UniProt Q48434).
T3 construct: were amplified without a signal peptide and cloned into the pET28a; His8 (N); made in house; host or cells: E. coli BL21(DE3)
In words: Ki by direct competition assay with nitrocefin, CMY-2. In kind it is biochemical. The procedure:
as §1, with “imidazole).” for “imidazole). SDS-PAGE confirmed the protein purity of the eluent (>95%), and the sample was loaded onto a pre-equilibrated Superdex 200 column to eliminate imidazole.”
(§7) Enzymatic activities were measured using a D8 UV-visible spectrophotometer (Rumqee, Shanghai, China) in phosphate-buffered saline (PBS; pH 7.2) at room temperature. Substrates tested included nitrocefin, ceftazidime, and avibactam. […] The initial reaction velocities (v) were measured and Ki values were calculated by fitting data into equation 1 with GraphPad Prism v9.0.0 ([37]). […]

The target of data set [6] is T1, CMY-178. In words: Ki by direct competition assay with nitrocefin, CMY-178. The following applies: for Ki: CMY-178, competition with 100 μM nitrocefin, 2-min incubation, mean ± SD; for Increase of Ki value of CMY-178 compared with CMY-172: CMY-178 vs CMY-172. In kind it is biochemical, Escherichia coli. The procedure: as §1, with “imidazole).” for “imidazole). SDS-PAGE confirmed the protein purity of the eluent (>95%), and the sample was loaded onto a pre-equilibrated Superdex 200 column to eliminate imidazole.”
as §2

The subject of the next data set is E. coli DH5α-pCR2.1. The experiment in a line: MIC by agar dilution, DH5α with blank vector pCR2.1. The data set is classed as cell-based. The following applies: Escherichia coli. The procedure: as §3, §4, §6
The subject of data set [7] is E. coli DH5α-pCR2.1-CMY-172. In words: MIC by agar dilution, transformant containing blaCMY-172. In kind it is cell-based. The following applies: Escherichia coli. How it is done: as §3, §4, §6
For a further data set, the system named is E. coli strain AR13438. The experiment in a line: MIC by agar dilution, clinical isolate AR13438. In kind it is cell-based, Escherichia coli. The following applies: Escherichia coli; AR13438, clinical E. coli isolate (blaCMY-178, blaTEM-1, blaCTX-M-27); agar dilution. The procedure:
as §3, §4

Data set [8] deals with T2, CMY-172. In words: Ki by direct competition assay with nitrocefin, CMY-172. The data set is classed as biochemical. The following applies: competition with 100 μM nitrocefin, 2-min incubation, mean ± SD. How it is done: as §1, with “imidazole).” for “imidazole). SDS-PAGE confirmed the protein purity of the eluent (>95%), and the sample was loaded onto a pre-equilibrated Superdex 200 column to eliminate imidazole.”
as §7

Data set [9] concerns K. pneumoniae isolate KPCZA02. The experiment in a line: microbe, parasite or virus in culture. In kind it is cell-based. The following applies: Klebsiella pneumoniae. How it is done: as §3
Setting [10] is: CMY-178, PBS pH 7.2, room temperature, mean ± SD, three experiments.
Where [11] appears, read: CMY-172, PBS pH 7.2, room temperature, mean ± SD, three experiments.

As a reminder, the Km is the substrate concentration at which the rate is half of its maximum. `O=C(Cc1cccs1)N[C@@H]1C(=O)N2C(C(=O)O)=C(/C=C/c3ccc([N+](=O)[O-])cc3[N+](=O)[O-])CS[C@H]12` [NCF, nitrocefin]: the Kcat at CMY-178 [1] (setting [10]) is 55.81 ± 1.04 s⁻¹; on CMY-172 [2] (setting [11]) it was 52.41 ± 2.65 s⁻¹. Besides, the Km worked out at 12.5 ± 0.31 µM at CMY-178 [1] (setting [10]) and 12 ± 0.66 µM on CMY-172 [2] (setting [11]). In addition, the “Decrease of kcat/Km compared with CMY-2” value at CMY-178 [1] (CMY-178 vs CMY-2) and on CMY-172 [2] (CMY-172 vs CMY-2) was “approximately 3 fold” each time.
The term kcat denotes the maximal rate divided by the concentration of active sites. The term kcat/Km denotes the second-order rate constant that governs catalysis at low substrate concentration. For the compound CMY-2 (Klebsiella pneumoniae), in [3], the Km came out at 59.88 ± 2.59 µM, the kcat was 732 ± 16.1 s⁻¹ and the kcat/Km was 1.22e+07 ± 600000 M⁻¹ s⁻¹.
In general, Ki refers to a measure of affinity in units of concentration, obtained from inhibition or displacement. In the case of `CC(C)(O/N=C(\C(=O)N[C@@H]1C(=O)N2C(C(=O)[O-])=C(C[n+]3ccccc3)CS[C@H]12)c1csc(N)n1)C(=O)O` [CAZ, ceftazidime], the MIC in the data set on E. coli J53 was 0.25 µg/mL (≈ 0.457 µM); in [4] it was 256 µg/mL (≈ 468 µM); in [5] (Escherichia coli, E. coli DH5α-pCR2.1-CMY-178, agar dilution) it was > 2050 µg/mL; against E. coli J53-AR13438, 1020 µg/mL (≈ 1870 µM); with E. coli J53-KPCZA02, 512 µg/mL (≈ 937 µM); with E. coli DH5α it was 0.25 µg/mL (≈ 0.457 µM). The MIC came out at 0.25 µg/mL (≈ 0.457 µM) in the data set on E. coli DH5α-pCR2.1, 512 µg/mL (≈ 937 µM) in data set [7], 2050 µg/mL (≈ 3750 µM) against E. coli strain AR13438 and 2050 µg/mL (≈ 3750 µM) in data set [9]. In addition, in data set [5] (transformants in E. coli DH5α), the “Increase of MIC by blaCMY-178 compared with blaCMY-172” value is listed as “over 4 fold”. Further, the Ki stood at 32.1 nM on CMY-2 (CMY-2, competition with 100 μM nitrocefin, 2-min incubation, mean ± SD, read-out: Ki); 9.27 nM on CMY-178 [6]; 1.06 nM on CMY-172 [8]. Moreover, the “Increase of Ki value of CMY-178 compared with CMY-172” value at CMY-178 [6] is given as ~ 5 fold.
In the case of `C[C@]1(Cn2ccnn2)[C@H](C(=O)O)N2C(=O)C[C@H]2S1(=O)=O` [TAZ, tazobactam], the Ki at CMY-2 is 760 ± 70 nM; at CMY-178 [6] it was 2490 ± 510 nM; at CMY-172 [8], 2120 ± 340 nM. Also, the “Increase of Ki value of CMY-178 compared with CMY-172” value at CMY-178 [6] is listed as “less than 2 fold”.
